How the values were obtained:
[1] = tested on: 5-mC in Bdnf promoter IV region; test: MeDIP-qPCR of Bdnf promoter IV; type: cell-based, mouse; conditions: Htt-72Q-expressing cortical neurons, 0.2 μM vs DMSO
From the text: FIG. 4A-4H illustrate that mutant Htt increased the levels of DNA methylation at Bdnf exon IV regulatory region in primary cortical neurons. (FIG. 4A) Schematic of the mouse Bdnf exon IV regulatory region near the TSS. The positions of CpG sites are indicated relative to the TSS. (FIG. 4B) DIV 5 primary cortical neurons were infected with lentivirus expressing Htt-25Q or Htt-72Q exon 1 fragment; 5 days later, genomic DNA was purified and subjected to bisulfite sequencing analysis. […] Increased DNA methylation was found in mutant Htt-expressing neurons compared to WT Htt-expressing neurons. 28-30 clones from 7 independent experiments were analyzed (See FIG. 11A) for the bisulfite sequencing data from each clone). The number above the black bar (Htt-72Q) represents the fold changes in methylated cytosine relative to the white bar (Htt-25Q) at the indicated position. (FIG. 4C) Genomic DNA was purified from primary cortical neurons transduced as in (B) and subjected to MeDIP with anti-5-mC antibody followed by qPCR. […]
Genomic DNA was isolated from primary cortical neurons using QIAamp DNA Mini Kit (QIAGEN) and fragmented by sonication using Bioruptor (Diagenode). […] The percentage input was calculated by first normalizing IP to input DNA using the formula (2^[(Ct(10% input)-3.32)-Ct(IP)]×100) as described previously^89. […]

[2] = tested on: Htt-72Q-expressing primary cortical neurons; test: Neurofilament (NF) immunofluorescence, neurite degeneration in cortical neurons; type: cell-based, mouse; conditions: fixed at DIV 14; vs. Htt-72Q (0 μM)
Experimental: Mouse primary cortical and striatal neurons from embryonic day (E) 15.5 Swiss Webster mouse fetuses (Taconic) were first plated in the minimal essential medium (MEM) containing 10% FBS, 0.45% glucose, 1 mM sodium pyruvate, 2 mM glutamine, 20 U/ml penicillin and 20 μg/ml streptomycin, for 3 h and then maintained in serum-free Neurobasal medium (Life Technologies) containing NeuroCult™ SM1 neuronal supplement ([…] Technologies), 0.5 mM glutamine and 25 μM glutamate for the first 3 d in a humidified incubator (37° C. in 5% CO2). Half of the medium was replaced with Neurobasal medium with SM1 and 0.5 mM glutamine every 3 days. Primary cortical neurons plated on 96-well flat clear bottom black plates (Corning #3904) at 4×10^4 cells/well were infected with Htt exon1 expression lentivirus (Htt-25Q or Htt-72Q) or control empty vector lentivirus at 5 days in vitro (DIV 5). Primary striatal neurons plated on 96-well plates at 1×10^5 cells/well were infected with Htt exon1 expression lentivirus at DIV 4. Viral copy number was adjusted for transduction of neurons on the basis of titer measured using the Lenti-X qRT-PCR titration kit (Clontech), and equal numbers of viral particles of Htt-25Q and Htt-72Q expressing lentiviruses were used for transduction. […]
For the measurement of neurofilament (NF) immunofluorescence intensity, cortical and striatal neurons cultured in a 96-well plate were fixed in 4% paraformaldehyde (PFA) in PBS for 20 min nine and seven days after Htt lentiviral infection, respectively, permeabilized with 0.1% Triton X-100 in PBS for 15 min at room temperature, and subjected to indirect immunofluorescence with anti-NF (2H3) primary antibody and Alexa Fluor 568-conjugated goat anti-mouse IgG secondary antibody (Life Technologies). […] Following image background subtraction, the NF immunofluorescence intensity was quantified using an ImageJ-based macro. Image capture and quantification of Htt (EM48) immunofluorescence intensity were performed as described for those of NF. […] About 300 nuclei from three random fields in a well were counted. […]

[3] = tested on: R6/2 HD mouse brain; test: icv infusion in R6/2 mice, striatal qRT-PCR; type: in vivo; conditions: 0.1 mM in saline icv infusion by osmotic pump from 6 weeks of age, one week, vs. R6/2-saline

## Nc1ncn([C@H]2C[C@H](O)[C@@H](CO)O2)c(=O)n1 [decitabine, 5-aza-2′-deoxycytidine]
[1]
  levels of 5-mC in Bdnf promoter IV region (MeDIP): decreased levels of 5-mC in Bdnf promoter IV region
[2]
  Htt-72Q-induced neurite degeneration (NF immunofluorescence intensity), cortical neurons: blocked Htt-72Q-induced neurite degeneration

## Nc1nc(=O)n([C@H]2C[C@H](O)[C@@H](CO)O2)cc1F [FdCyd, 5-fluoro-2′-deoxycytidine]
[3]
  striatal Penk RNA: trend towards increasing
  striatal levels of Drd2, Ppp1r1b, Rasd2, and Adora2a mRNA: restored
[1]
  levels of 5-mC in Bdnf promoter IV region (MeDIP): decreased levels of 5-mC in Bdnf promoter IV region
[2]
  Htt-72Q-induced neurite degeneration (NF immunofluorescence intensity), cortical neurons: protected neurons from Htt-72Q-induced neurite degeneration

— patent publication US10842807B2, “Methods of treating neurodegenerative disorders comprising DNA methyltransferase inhibitors” (Washington University, priority 2016, dated 2020)
